Settings: from C=CCCCCCC[C@@H](NC(=O)C1CC(OC(=O)N2Cc3ccccc3C2)CN1C(=O)N(C)CC=C)B1O[C@@H]2C[C@@H]3C[C@@H](C3(C)C)[C@]2(C)O1; rcm bond; Grubbs 2nd generation catalyst; toluene; 6.5 mM; 65.0 °C

**Q.** For `CN1CC=CCCCCCC[C@H](B2O[C@@H]3C[C@@H]4C[C@@H](C4(C)C)[C@]3(C)O2)NC(=O)C2CC(OC(=O)N3Cc4ccccc4C3)CN2C1=O` (stereo partly shown), which ring closure, yield of all isomers is on record?
**A.** Its ring closure, yield of all isomers is 40%.

— US20100120716
